How the values were obtained:
[1] = system: ABUTH (Abutilon theophrasti); assay: Postemergence herbicidal evaluation; assay type: in vivo, Medic.
Procedure: (§1) In the tests, seedling plants are grown in jiffy flats for about two weeks. […] After spraying, the plants are placed on greenhouse benches and are cared for in accordance with conventional greenhouse procedures. From four to five weeks after treatment, the seedling plants are examined and rated according to the rating system set forth below. Where more than one test is involved for a given compound, the data are averaged.
(§2) Results of herbicide evaluation are expressed on a rating scale (0-9). The scale is based upon a visual observation of plant stand, vigor, malformation, size, chlorosis and overall plant appearance as compared with a control.

[2] = system: AMBEL (Ambrosia artemisifolia); assay: Postemergence herbicidal evaluation; assay type: in vivo, L.
Procedure: as §1, §2

[3] = system: CASOB (Cassia obtusifolia); assay: Postemergence herbicidal evaluation; assay type: in vivo, L.
Procedure: as §1, §2

[4] = system: CHEAL (Chenopodium album); assay: Postemergence herbicidal evaluation; assay type: in vivo, L.
Procedure: as §1, §2

GALAP (Galium aparine) [5] = assay: Postemergence herbicidal evaluation; assay type: in vivo
Procedure: as §1, §2

[6] = system: IPOHE (Ipomoea hederacea); assay: Postemergence herbicidal evaluation; assay type: in vivo, (L.) Jacq.
Procedure: as §1, §2

[7] = system: ECHCG (Echinochloa crus-galli); assay: Postemergence herbicidal evaluation; assay type: in vivo, (L.) Beau
Procedure: as §1, §2

SETVI (Setaria viridis) [8] = assay: Postemergence herbicidal evaluation; assay type: in vivo, (L.) Beau
Procedure: In the tests, seedling plants are grown in jiffy flats for about two weeks. The test compounds are dispersed in 50/50 acetone/water mixtures containing 0.5% TWEEN® 20, a polyoxyethylene sorbitan monolaurate surfactant of Atlas Chemical Industries, in sufficient quantities to provide the equivalent of about 0.0040 kg to 1.000 kg per hectare of active compound when applied to the plants through a spray nozzle operating at 40 psi for a predetermined time. After spraying, the plants are placed on greenhouse benches and are cared for in accordance with conventional greenhouse procedures. From four to five weeks after treatment, the seedling plants are examined and rated according to the rating system set forth below. Where more than one test is involved for a given compound, the data are averaged.
as §2

[9] = system: GLXMAW (Soybean, Williams); assay: Postemergence herbicidal evaluation; assay type: in vivo, Glycine max, (L.) Merr. cv Williams
Procedure: as §1, §2

ORYSAT (Rice, Tebonnet) [10] = assay: Postemergence herbicidal evaluation; assay type: in vivo, Oryza sativa, (L.) Tebonnet
Procedure: as §1, §2

[11] = system: TRZAWR (Wheat, Winter, cv Riband); assay: Postemergence herbicidal evaluation; assay type: in vivo, Triticum aestivum
Procedure: as §1, §2

ZEAMX (Corn, Field) [12] = assay: Postemergence herbicidal evaluation; assay type: in vivo, Zea mays, L.
Procedure: as §1, §2

[13] = system: ABUTH (Abutilon theophrasti); assay: Preemergence herbicidal evaluation; assay type: in vivo, Medic.; details: Rate 0.2500 kg/ha; preemergence; rated 4-5 weeks after treatment
Text: as §2
(§3) The preemergence herbicidal activity of the test compounds of the present invention is exemplified by the following tests in which the seeds of a variety of monocotyledonous and dicotyledonous plants are separately mixed with potting soil and planted on top of approximately one inch of soil in separate pint cups. […] The treated cups are then placed on greenhouse benches, watered and cared for in accordance with conventional greenhouse procedures. From four to five weeks after treatment, the tests are terminated and each cup is examined and rated according to the rating system provided in Example 87. The plant species used and the compounds evaluated are the same as those shown in Example 87.

[14] = system: AMBEL (Ambrosia artemisifolia); assay: Preemergence herbicidal evaluation; assay type: in vivo, L.; details: Rate 0.2500 kg/ha; preemergence; rated 4-5 weeks after treatment
Text: as §2, §3

[15] = system: CASOB (Cassia obtusifolia); assay: Preemergence herbicidal evaluation; assay type: in vivo, L.; details: Rate 0.2500 kg/ha; preemergence; rated 4-5 weeks after treatment
Text: as §2, §3

[16] = system: CHEAL (Chenopodium album); assay: Preemergence herbicidal evaluation; assay type: in vivo, L.; details: Rate 0.2500 kg/ha; preemergence; rated 4-5 weeks after treatment
Text: as §2, §3

[17] = system: IPOHE (Ipomoea hederacea); assay: Preemergence herbicidal evaluation; assay type: in vivo, (L.) Jacq.; details: Rate 0.2500 kg/ha; preemergence; rated 4-5 weeks after treatment
Text: as §2, §3

[18] = system: ECHCG (Echinochloa crus-galli); assay: Preemergence herbicidal evaluation; assay type: in vivo, (L.) Beau; details: Rate 0.2500 kg/ha; preemergence; rated 4-5 weeks after treatment
Text: as §2, §3

SETVI (Setaria viridis) [19] = assay: Preemergence herbicidal evaluation; assay type: in vivo, (L.) Beau; details: Rate 0.2500 kg/ha; preemergence; rated 4-5 weeks after treatment
Text: as §2, §3

[20] = system: GLXMAW (Soybean, Williams); assay: Preemergence herbicidal evaluation; assay type: in vivo, Glycine max, (L.) Merr. cv Williams; details: Rate 0.2500 kg/ha; preemergence; rated 4-5 weeks after treatment
Text: as §2, §3

ORYSAT (Rice, Tebonnet) [21] = assay: Preemergence herbicidal evaluation; assay type: in vivo, Oryza sativa, (L.) Tebonnet; details: Rate 0.2500 kg/ha; preemergence; rated 4-5 weeks after treatment
Text: as §2, §3

[22] = system: TRZAWR (Wheat, Winter, cv Riband); assay: Preemergence herbicidal evaluation; assay type: in vivo, Triticum aestivum; details: Rate 0.2500 kg/ha; preemergence; rated 4-5 weeks after treatment
Text: as §2, §3

ZEAMX (Corn, Field) [23] = assay: Preemergence herbicidal evaluation; assay type: in vivo, Zea mays, L.; details: Rate 0.2500 kg/ha; preemergence; rated 4-5 weeks after treatment
Text: as §2, §3

[24] = system: ECHORC (Echinochloa oryzoides); assay: Flooded paddy, preemergence weed control; assay type: in vivo, Echinochloa oryzoides (Ard.) Fritsch.; details: rate 0.1250 kg/ha, rated 3-4 weeks after treatment, 0-9 rating scale
Procedure: as §2
(§4) Preemergence herbicidal activity under flooded paddy conditions is determined as follows: plant seeds or propagating organs are planted in the top 0.5 cm of silt loam soil in 32 oz. plastic containers with a diameter of 10.5 cm and no drainage holes. Water is added to these containers and maintained at 1.5 to 3 cm above the soil surface for the duration of the experiment. […] The treated containers are placed on greenhouse benches and cared for in accordance with conventional greenhouse procedures.

CYPIR (Cyperus iria) = assay: Flooded paddy, preemergence weed control; assay type: in vivo; details: rate 0.1250 kg/ha, rated 3-4 weeks after treatment, 0-9 rating scale
Procedure: as §2, §4

[25] = system: CYPSE (Cyperus serotinus); assay: Flooded paddy, preemergence weed control; assay type: in vivo, Rottb.; details: rate 0.1250 kg/ha, rated 3-4 weeks after treatment, 0-9 rating scale
Procedure: as §2
Preemergence herbicidal activity under flooded paddy conditions is determined as follows: plant seeds or propagating organs are planted in the top 0.5 cm of silt loam soil in 32 oz. plastic containers with a diameter of 10.5 cm and no drainage holes. Water is added to these containers and maintained at 1.5 to 3 cm above the soil surface for the duration of the experiment. The test compounds are applied as aqueous/acetone mixtures 50/50 v/v pipetted directly into the flood water to give the equivalent of about 0.0080 to 0.1250 kg/ha of active ingredient. The treated containers are placed on greenhouse benches and cared for in accordance with conventional greenhouse procedures. Three to four weeks after treatment, the test is terminated and each container is examined and herbicidal effect rated according to the rating system provided in Example 87.

[26] = system: MOOVA (Monochoria vaginalis); assay: Flooded paddy, preemergence weed control; assay type: in vivo, Presl.; details: rate 0.1250 kg/ha, rated 3-4 weeks after treatment, 0-9 rating scale
Procedure: as §2, §4

[27] = system: SAGPY (Sagittaria pygmaea); assay: Flooded paddy, preemergence weed control; assay type: in vivo, L.; details: rate 0.1250 kg/ha, rated 3-4 weeks after treatment, 0-9 rating scale
Procedure: as §2, §4

ORYSAT (Rice, Tebonnet) [28] = assay: Flooded paddy, post-transplant rice tolerance; assay type: in vivo, Oryza sativa, (L.) Tebonnet; details: flooded paddy, post-transplant rice; rate 0.1250 kg/ha; rated 3-4 weeks after treatment; 0-9 rating scale
Procedure: as §2
The tolerance of transplanted rice to post-transplanted herbicide application is determined as follows: two ten-day-old rice seedlings (cv. Tebonnet) are transplanted into silt loam soil in 32 oz. plastic containers with a diameter of 10.5 cm and no drainage holes. After transplanting, the containers are flooded and the water level is maintained at 1.5 to 3 cm above the soil surface. […] The treated containers are placed on greenhouse benches, watered such that the water level is maintained as stated above, and cared for in accordance with conventional greenhouse procedures.

GALAP (Galium aparine) [29] = assay: Preemergence herbicidal evaluation; assay type: in vivo; details: Rate 0.2500 kg/ha; preemergence; rated 4-5 weeks after treatment
Text: as §2, §3

| Compound | ABUTH preemergence herbicidal rating [13] | AMBEL preemergence herbicidal rating [14] | CASOB preemergence herbicidal rating [15] | CHEAL preemergence herbicidal rating [16] | IPOHE preemergence herbicidal rating [17] | ECHCG preemergence herbicidal rating [18] | SETVI preemergence herbicidal rating (SETVI (Setaria viridis) [19]) | GLXMAW preemergence herbicidal rating [20] | ORYSAT preemergence herbicidal rating (ORYSAT (Rice, Tebonnet) [21]) | TRZAWR preemergence herbicidal rating [22] | ZEAMX preemergence herbicidal rating (ZEAMX (Corn, Field) [23]) | herbicidal rating, ECHORC [24] | herbicidal rating, CYPIR (CYPIR (Cyperus iria)) | herbicidal rating, CYPSE [25] | herbicidal rating, MOOVA [26] | herbicidal rating, SAGPY [27] | herbicidal rating, ORYSAT (rice tolerance) (ORYSAT (Rice, Tebonnet) [28]) | further results |
| --- | --- | --- | --- | --- | --- | --- | --- | --- | --- | --- | --- | --- | --- | --- | --- | --- | --- | --- |
| Cn1cccc1-c1nsc2ccc(-n3c(=O)cc(C(F)(F)F)n(C)c3=O)cc12 [Compound 6, 1-methyl-3-[3-(1-methylpyrrol-2-yl)-1,2-benzisothiazol-5-yl]-6-(trifluoromethyl)uracil] | 9.0 | 9.0 | 0.0 | 9.0 | 9.0 | 9.0 | 8.0 | 4.0 | 2.0 | 2.0 | 5.0 | 2.0 | 9.0 | 9.0 | 9.0 | 4.0 | 3.0 | Postemergence herbicidal rating, ABUTH ([1]; rate 0.1250 kg/ha): 9.0; Postemergence herbicidal rating, AMBEL ([2]; rate 0.1250 kg/ha): 3.0; Postemergence herbicidal rating, CASOB ([3]; rate 0.1250 kg/ha): 0.0; Postemergence herbicidal rating, CHEAL ([4]; rate 0.1250 kg/ha): 4.0; Postemergence herbicidal rating, GALAP (GALAP (Galium aparine) [5]; rate 0.1250 kg/ha): 4.0; Postemergence herbicidal rating, IPOHE ([6]; rate 0.1250 kg/ha): 9.0; Postemergence herbicidal rating, ECHCG ([7]; rate 0.1250 kg/ha): 0.0; Postemergence herbicidal rating, SETVI (SETVI (Setaria viridis) [8]; rate 0.1250 kg/ha): 0.0; Postemergence herbicidal rating, GLXMAW ([9]; rate 0.1250 kg/ha): 7.5; Postemergence herbicidal rating, ORYSAT (ORYSAT (Rice, Tebonnet) [10]; rate 0.1250 kg/ha): 3.0; Postemergence herbicidal rating, TRZAWR ([11]; rate 0.1250 kg/ha): 4.5; Postemergence herbicidal rating, ZEAMX (ZEAMX (Corn, Field) [12]; rate 0.1250 kg/ha): 5.0 |
| Cn1c(C(F)(F)F)cc(=O)n(-c2ccc3snc(-c4cccnc4)c3c2)c1=O [Compound 11, 1-methyl-3-[3-(3-pyridyl)-1,2-benzisothiazol-5-yl]-6-(trifluoromethyl)uracil] | 9.0 | 9.0 | 9.0 | 9.0 | 7.0 | 8.0 | 9.0 | 7.5 | 5.0 | 4.0 | 5.5 | 5.0 | 9.0 | 0.0 | 9.0 | 0.0 | 3.0 | Postemergence herbicidal rating, ABUTH ([1]; rate 0.0620 kg/ha): 9.0; Postemergence herbicidal rating, AMBEL ([2]; rate 0.0620 kg/ha): 9.0; Postemergence herbicidal rating, CASOB ([3]; rate 0.0620 kg/ha): 1.0; Postemergence herbicidal rating, CHEAL ([4]; rate 0.0620 kg/ha): 8.0; Postemergence herbicidal rating, GALAP (GALAP (Galium aparine) [5]; rate 0.0620 kg/ha): 6.0; Postemergence herbicidal rating, IPOHE ([6]; rate 0.0620 kg/ha): 9.0; Postemergence herbicidal rating, ECHCG ([7]; rate 0.0620 kg/ha): 0.0; Postemergence herbicidal rating, SETVI (SETVI (Setaria viridis) [8]; rate 0.0620 kg/ha): 7.0; Postemergence herbicidal rating, GLXMAW ([9]; rate 0.0620 kg/ha): 6.5; Postemergence herbicidal rating, ORYSAT (ORYSAT (Rice, Tebonnet) [10]; rate 0.0620 kg/ha): 3.5; Postemergence herbicidal rating, TRZAWR ([11]; rate 0.0620 kg/ha): 3.5; Postemergence herbicidal rating, ZEAMX (ZEAMX (Corn, Field) [12]; rate 0.0620 kg/ha): 5.5; GALAP preemergence herbicidal rating (GALAP (Galium aparine) [29]): 9.0 |

From patent US6706663B2, “Herbicidal 3-heterocyclic substituted benzisothiazole and benzisoxazole compounds” (Wyeth, priority 2000, dated 2004)
